Experiments:
Format in all cases: in vivo
[1] = test system: barnyardgrass (Echinochloa crus-galli); assay: Test G Pre-Emergence Protocol; details: Echinochloa crus-galli, pre-emergence, 312 h, evaluated after 13 days
How it was run: (§1)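 Under a 24/16° C day/night regime with 14 h light and 65% humidity, sown pots were sprayed after one day with compound (15.625, 62.5 or 250 g/ha; 50:50 acetone/water, 0.5% Tween 20). Damage was assessed visually 13 days later, 0 to 100.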

corn (Zea mays) [2] = assay: Test G Pre-Emergence Protocol; details: Zea mays, pre-emergence, 312 h, evaluated after 13 days
How it was run: as §1

[3] = test system: giant foxtail (Setaria faberi); assay: Test G Pre-Emergence Protocol; details: Setaria faberi, pre-emergence, 312 h, evaluated after 13 days
How it was run: as §1

[4] = test system: ivy-leaved morning glory (Ipomoea hederacea); assay: Test G Pre-Emergence Protocol; details: Ipomoea, pre-emergence, 312 h, evaluated after 13 days
How it was run: as §1

[5] = test system: redroot pigweed (Amaranthus retroflexus); assay: Test G Pre-Emergence Protocol; details: Amaranthus retroflexus, pre-emergence, 312 h, evaluated after 13 days
How it was run: as §1

[6] = test system: velvetleaf (Abutilon theophrasti); assay: Test G Pre-Emergence Protocol; details: Abutilon theophrasti, pre-emergence, 312 h, evaluated after 13 days
How it was run: as §1

[7] = test system: barnyardgrass (Echinochloa crus-galli); assay: Test G Post-Emergence Protocol; details: Echinochloa crus-galli, post-emergence, 312 h
How it was run: (§2)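 Sow in soil; grow 8 d (24/16 °C, 14 h light, 65% humidity); spray 15.625/62.5/250 g/ha in acetone:water 50:50 + 0.5% Tween 20; grow on, water twice daily; score damage 0–100 at 13 d.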

corn (Zea mays) [8] = assay: Test G Post-Emergence Protocol; details: Zea mays, post-emergence, 312 h
How it was run: as §2

[9] = test system: giant foxtail (Setaria faberi); assay: Test G Post-Emergence Protocol; details: Setaria faberi, post-emergence, 312 h
How it was run: as §2

[10] = test system: ivy-leaved morning glory (Ipomoea hederacea); assay: Test G Post-Emergence Protocol; details: Ipomoea, post-emergence, 312 h
How it was run: as §2

[11] = test system: redroot pigweed (Amaranthus retroflexus); assay: Test G Post-Emergence Protocol; details: Amaranthus retroflexus, post-emergence, 312 h
How it was run: as §2

[12] = test system: velvetleaf (Abutilon theophrasti); assay: Test G Post-Emergence Protocol; details: Abutilon theophrasti, post-emergence, 312 h
How it was run: as §2

CN1C[C@@H](c2ccc(C(F)(F)F)cc2)[C@H](C(=O)Nc2nnc(C(F)(F)F)s2)C1=O (racemic) [Compound 1548]
0%: pest or weed control at 15.625 g/ha ([1]; 15.625 g ai/ha, read-out: Barnyard grass damage rating (100=total damage to plant; 0=no damage to plant)) | pest or weed control at 62.5 g/ha ([1]; 62.5 g ai/ha, 100=total damage to plant, 0=no damage to plant, read-out: plant damage rating, Barnyardgrass) | pest or weed control at 250 g/ha ([1]; 250 g ai/ha, read-out: Barnyardgrass damage rating (100=total damage to plant; 0=no damage to plant)) | plant injury at 15.625 g/ha (corn (Zea mays) [2]; 15.625 g ai/ha, read-out: Corn damage rating (100=total damage to plant; 0=no damage to plant)) | plant injury at 62.5 g/ha (corn (Zea mays) [2]; 62.5 g ai/ha, 100=total damage to plant, 0=no damage to plant, read-out: plant damage rating, Corn) | plant injury at 250 g/ha (corn (Zea mays) [2]; 250 g ai/ha, read-out: Corn damage rating (100=total damage to plant; 0=no damage to plant)) | pest or weed control at 15.625 g/ha ([3]; 15.625 g ai/ha, read-out: Foxtail, Giant damage rating (100=total damage to plant; 0=no damage to plant)) | pest or weed control at 62.5 g/ha ([3]; 62.5 g ai/ha, 100=total damage to plant, 0=no damage to plant, read-out: plant damage rating, Foxtail, Giant) | pest or weed control at 250 g/ha ([3]; 250 g ai/ha, read-out: Foxtail, Giant damage rating (100=total damage to plant; 0=no damage to plant)) | pest or weed control at 15.625 g/ha ([4]; 15.625 g ai/ha, read-out: Morning-glory, Ivy-leaved damage rating (100=total damage to plant; 0=no damage to plant)) | pest or weed control at 62.5 g/ha ([4]; 62.5 g ai/ha, 100=total damage to plant, 0=no damage to plant, read-out: plant damage rating, Morningglory, Ivy-leaved) | pest or weed control at 250 g/ha ([4]; 250 g ai/ha, read-out: Morningglory, Ivy-leaved damage rating (100=total damage to plant; 0=no damage to plant)) | pest or weed control at 15.625 g/ha ([5]; 15.625 g ai/ha, read-out: Pigweed, Redroot damage rating (100=total damage to plant; 0=no damage to plant)) | pest or weed control at 62.5 g/ha ([5]; 62.5 g ai/ha, 100=total damage to plant, 0=no damage to plant, read-out: plant damage rating, Pigweed, Redroot) | pest or weed control at 250 g/ha ([5]; 250 g ai/ha, read-out: Pigweed, Redroot damage rating (100=total damage to plant; 0=no damage to plant)) | pest or weed control at 15.625 g/ha ([6]; 15.625 g ai/ha, read-out: Velvetleaf damage rating (100=total damage to plant; 0=no damage to plant)) | pest or weed control at 62.5 g/ha ([6]; 62.5 g ai/ha, 100=total damage to plant, 0=no damage to plant, read-out: plant damage rating, Velvetleaf) | pest or weed control at 250 g/ha ([6]; 250 g ai/ha, read-out: Velvetleaf damage rating (100=total damage to plant; 0=no damage to plant)) | pest or weed control at 15.625 g/ha ([7]; 15.625 g ai/ha, evaluated after 13 days (100=total damage to plant; 0=no damage to plant), read-out: Barnyardgrass damage rating) | pest or weed control at 62.5 g/ha ([7]; 62.5 g ai/ha, evaluated after 13 days, read-out: Barnyardgrass damage rating (100=total damage to plant; 0=no damage to plant)) | pest or weed control at 250 g/ha ([7]; 250 g ai/ha, evaluated after 13 days, read-out: damage to plant, Barnyardgrass (100=total damage to plant; 0=no damage to plant)) | plant injury at 15.625 g/ha (corn (Zea mays) [8]; 15.625 g ai/ha, evaluated after 13 days (100=total damage to plant; 0=no damage to plant), read-out: Corn damage rating) | plant injury at 62.5 g/ha (corn (Zea mays) [8]; 62.5 g ai/ha, evaluated after 13 days, read-out: Corn damage rating (100=total damage to plant; 0=no damage to plant)) | plant injury at 250 g/ha (corn (Zea mays) [8]; 250 g ai/ha, evaluated after 13 days, read-out: damage to plant, Corn (100=total damage to plant; 0=no damage to plant)) | pest or weed control at 15.625 g/ha ([9]; 15.625 g ai/ha, evaluated after 13 days (100=total damage to plant; 0=no damage to plant), read-out: Foxtail, Giant damage rating) | pest or weed control at 62.5 g/ha ([9]; 62.5 g ai/ha, evaluated after 13 days, read-out: Foxtail, Giant damage rating (100=total damage to plant; 0=no damage to plant)) | pest or weed control at 250 g/ha ([9]; 250 g ai/ha, evaluated after 13 days, read-out: damage to plant, Foxtail, Giant (100=total damage to plant; 0=no damage to plant)) | pest or weed control at 15.625 g/ha ([10]; 15.625 g ai/ha, evaluated after 13 days (100=total damage to plant; 0=no damage to plant), read-out: Morningglory, Ivy-leaved damage rating) | pest or weed control at 62.5 g/ha ([10]; 62.5 g ai/ha, evaluated after 13 days, read-out: Morningglory, Ivy-leaved damage rating (100=total damage to plant; 0=no damage to plant)) | pest or weed control at 250 g/ha ([10]; 250 g ai/ha, evaluated after 13 days, read-out: damage to plant, Morningglory, Ivy-leaved (100=total damage to plant; 0=no damage to plant)) | pest or weed control at 15.625 g/ha ([11]; 15.625 g ai/ha, evaluated after 13 days (100=total damage to plant; 0=no damage to plant), read-out: Pigweed, Redroot damage rating) | pest or weed control at 62.5 g/ha ([11]; 62.5 g ai/ha, evaluated after 13 days, read-out: Pigweed, Redroot damage rating (100=total damage to plant; 0=no damage to plant)) | pest or weed control at 250 g/ha ([11]; 250 g ai/ha, evaluated after 13 days, read-out: damage to plant, Pigweed, Redroot (100=total damage to plant; 0=no damage to plant)) | pest or weed control at 15.625 g/ha ([12]; 15.625 g ai/ha, evaluated after 13 days (100=total damage to plant; 0=no damage to plant), read-out: Velvetleaf damage rating) | pest or weed control at 62.5 g/ha ([12]; 62.5 g ai/ha, evaluated after 13 days, read-out: Velvetleaf damage rating (100=total damage to plant; 0=no damage to plant)) | pest or weed control at 250 g/ha ([12]; 250 g ai/ha, evaluated after 13 days, read-out: damage to plant, Velvetleaf (100=total damage to plant; 0=no damage to plant))
